# Measured values taken from patent US4693977A, “Enzyme immobilization for producing cephalosporin antibiotics” (Queen's University at Kingston, priority 1986, dated 1987).
# “And” between values parts separate entries of the source, which are not always exact repeats. Equal values may be shown once.
# Experiments:
# [1] = tested on: cyclase, epimerase and ring expansion enzyme from a cell-free extract of S. clavuligerus; assay: Cyclization / ring expansion of peptides with enzymes of S. clavuligerus cell-free extract (SPCFX); assay type: biochemical
# Method: (§1) Cyclization activity of enzyme preparations was measured in reaction mixtures containing: bis-δ-(L-α-amino-adipyl-L-cysteinyl-D-valine) (ACV)2 0.306 mM, […] 4 mM, Na ascorbate 2.8 mM, FeSO4 45 μM, tris-HCl buffer 0.05M, pH 7.0, enzyme preparation 0.03-0.3 ml, final volume 0.4 ml. Reaction mixtures were incubated at 20° C. for up to 4 hours and stopped by cooling on ice or by the addition of 0.4 ml methanol.
# (§2) Ring expansion activity was followed using the cyclization assay system described above but supplemented with ATP 0.5 mM, α-ketoglutarate 1 mM, KCl 7.5 mM, and MgSO4 7.5 mM. Total volume and incubation conditions were the same as for the cyclization assay.
# (§3) To 0.4 ml of reaction mixture were added 0.9 mM of ACV dimer as produced in Example 4, 50.0 mM Tris-HCl pH 7.0 buffer and a mixture of the three enzymes as produced in Example 1 from a cell-free extract of S. clavuligerus, together with 45.0 μM ferrous sulfate and 2.8 mM ascorbic acid as optimized amounts of essential co-factors. DTT was added in excess of the amount required to reduce ACV dimer to ACV monomer. The reaction was continued for approximately 2 hours at 20° C. and then terminated by addition of 0.4 ml methanol to precipitate protein.
# (§4) The procedures of Example 7 were repeated using L-aspartyl, L-glutamyl, D-α-aminoadipyl, adipyl, glycyl-L-α-aminoadipyl and N-acetyl-L-α-aminodipyl-containing peptides. […] A prokaryotic system is, therefore, required. Modification of the valinyl moiety, as noted above, has been considered in detail. Substrates modified in the valinyl moiety such as: [drawing 17] where R1 is H, a lower alkyl or functionalized carboxylic group; and R2 is H or a lower alkyl group may be cyclized with carbon-sulfur bond formation with retention of configuration at the beta carbon of the valine analog, leading to isopenicillin N analogs of the type: [drawing 18] Following epimerization to penicillin N analogs of the type: [drawing 19] ring expansion leads to cephalosporin analogs of the type: with transfer of the beta carbon atom attached to C2 of (11) into C2 of the six membered ring.
# (§5) Methanol inactivated reaction mixtures (from Examples 7 and 8) were centrifuged at 12,000×g for 5 min to remove precipitated protein before analysis. Reaction mixtures from Example 9 were examined directly. The chromatographic equipment used was: M-6000A pump, UK-6 injector, M-480 variable wavelength director, M-420 data module and Bondapak-C18 column (Rad Pak A in a Z module) as stationary phase. All equipment was from Waters Scientific Co., Mississauga, Ontario. The mobile phase consisted of methanol/0.05 M potassium phosphate buffer, pH 4.0 (5/95). The methanol content of the mobile phase depended upon the particular separation and the source of the material e.g. Examples 7 and 8 or Example 9. A short precolumn (packed with Bondapak C18 /Corasil) was used to guard the main column. UV-absorbing material was detected at 220 nm at a sensitivity of 0.02 AUFS.
# [2] = target: T1, cyclase, epimerase and ring expansion enzyme from a cell-free extract of S. clavuligerus (Streptomyces clavuligerus, UniProt P10621); assay: as above; assay type: biochemical
# T1 construct: from a cell-free extract of S. clavuligerus; endogenous in cells; host or cells: Streptomyces clavuligerus (cell-free extract / salt-precipitated cell-free extract)
# T1 sequence (P10621 1-329): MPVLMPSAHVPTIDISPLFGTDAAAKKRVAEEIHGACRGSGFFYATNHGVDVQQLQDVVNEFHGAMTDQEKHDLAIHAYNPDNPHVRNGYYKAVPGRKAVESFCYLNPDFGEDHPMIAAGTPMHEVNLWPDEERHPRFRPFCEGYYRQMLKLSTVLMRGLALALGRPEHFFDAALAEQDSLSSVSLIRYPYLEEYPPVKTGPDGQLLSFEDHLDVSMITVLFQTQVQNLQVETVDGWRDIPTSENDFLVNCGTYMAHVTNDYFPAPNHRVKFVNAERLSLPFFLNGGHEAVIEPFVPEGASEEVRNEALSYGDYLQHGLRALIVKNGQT
# Method: as §1, §2, §3, §4, §5
# [3] = tested on: Micrococcus luteus ATCC. 9341; assay: Agar diffusion bioassay of cyclization reaction mixtures versus M. luteus; assay type: cell-based; settings: cyclization reaction mixture, SPCFX, 2h at 20° C., 20 μl
# Excerpt: (§6) Antibiotic in reaction mixtures was estimated by the agar diffusion method. Cyclization reaction mixtures were bioassayed using Micrococcus luteus ATCC. 9341 and Escherichia coli Ess as indicator organisms. Ring expansion reaction mixtures were bioassayed using E. coli Ess as indicator organism in agar plates supplemented with penicillinase at 2×10^5 units/ml
# (§7) The procedure of Example 7 was repeated with ACV analogs in which valine was replaced by alpha-aminobutyric acid (R1 =R2 =H) and allo-isoleucine (R1 =H, R2 =C2 H5), as follows: (AC-aminobutyrate)2 (ACAB)2 and (AC-alloisoleucine)2 (ACI)2 were dissolved in water, neutralized, and lyophilized in 0.1 and 1.0 mg amounts. These peptides were then used as substrates in cyclization and ring expansion assays as follows: One hundred micrograms of (ACV)2 from Example 6 was used as substrate in a cyclization and a ring expansion assay system using 0.1 ml of salt-precipitated cell-free extract as enzyme source in each case. (Final concentration of (ACV)2 is 0.306 mM). Identical cyclization and ring expansion assays were set up in which 100 μg (ACAB)2 or 1.0 mg (ACI)2 replaced the (ACV)2 as substrate and 0.3 ml of salt precipitated cell-free extract was used as enzyme source. No substrate controls were also prepared. The reaction mixtures were incubated for 2h at 20° C. At the end of incubation 20 μl amounts of the cyclization reaction mixtures were bioassayed versus M. luteus and E. coli Ess; 20 μl amounts of the ring expansion reaction mixtures were bioassayed versus E. coli Ess plus and minus penicillinase.
# [4] = tested on: E. coli Ess + penicillinase; assay: Agar diffusion bioassay of ring expansion reaction mixtures, plates with penicillinase; assay type: cell-based, Escherichia coli; settings: for Zone of Inhibition, E. coli Ess + penicillinase: SPCFX, 2h at 20° C., 20 μl; for Cephalosporin C "equivalents" / Zone of Inhibition: immobilized enzyme reactor reaction mixture
# Method: (§8) 2 ml of the reaction mixture was applied to the immobilized enzyme reactor by means of a peristaltic pump operating at 40 ml/h. Effluent was collected into a 13×100 mm test tube from which the original reaction mixture was pumped, and therefore was recycled continuously through the enzyme reactor. The enzyme reactor was operated at 21° C. and 20 μl aliquots were removed at 15 minute time intervals for analysis for antibiotic formation. (Table I).
# as §6, §7
# [5] = tested on: Escherichia coli Ess; assay: Agar diffusion bioassay of reaction mixtures versus E. coli Ess; assay type: cell-based; settings: for Zone of Inhibition, E. coli Ess: SPCFX, 2h at 20° C., 20 μl
# Excerpt: as §6, §7
# [6] = target: T2, immobilized SPCFX (cyclase, epimerase, ring expansion enzyme) on DEAE Trisacryl (Streptomyces clavuligerus, UniProt P10621); assay: Conversion of ACV on immobilized SPCFX column (immobilized enzyme reactor), HPLC; assay type: biochemical; settings: 1 mg ACV, cycled 1.5 hours at 40 ml per hour through 2 ml immobilized SPCFX
# T2 construct: Cell-free extracts were prepared by washing 40-48 h cells of S. clavuligerus; endogenous in cells
# T2 sequence (P10621 1-329): T1 sequence (P10621 1-329)
# Method: DEAE-Trisacryl® resin was loaded into a column 0.4×5.8 cm (packed bed volume, 1 ml), washed with 3×2 ml of the same EDTA buffer, and allowed to drain to dryness by gravity. One milliliter of the salt-precipitated cell-free extract above was applied to the column. The effluent was collected and reapplied to the column twice to ensure complete enzyme loading. The column was washed with 2×1 ml of the same EDTA buffer, drained dry and centrifuged for 3 min. at 500×g to remove excess buffer. This immobilized enzyme reactor was stored at 4° C. when not in use.
# as §8
# Methanol inactivated reaction mixtures (from Examples 7 and 8) were centrifuged at 12,000×g for 5 min to remove precipitated protein before analysis. Reaction mixtures from Example 9 were examined directly. […] UV-absorbing material was detected at 220 nm at a sensitivity of 0.02 AUFS. […]
# [7] = ring expansion reaction mixture
# [8] = mixture of the three enzymes, approx. 2 hours at 20° C., without alpha-ketoglutarate
smiles,measurement,setting,value
CC(=O)N[C@@H](CCCC(=O)N[C@@H](CS)C(=O)N[C@@H](C(=O)O)C(C)C)C(=O)O,conversion product with SPCFX,[1]; via an initial deacylation to ACV,penicillin N and isopenicillin N
same,cyclization of the peptide,[2]; procedures of Example 7,Cyclization was observed
CC[C@@H](NC(=O)[C@H](CSSC[C@H](NC(=O)CCC[C@H](N)C(=O)O)C(=O)N[C@H](CC)C(=O)O)NC(=O)CCC[C@H](N)C(=O)O)C(=O)O [(ACAB)2],"Zone of Inhibition, M. luteus",[3],8.0 mm
same,formation of penicillinase-insensitive antibiotic,[4]; [7],do not form penicillinase-insensitive antibiotic
same,"Zone of Inhibition, E. coli Ess + penicillinase",[4]; [7],0 mm
same,antibiotic activity equivalent to a solution of cephalosporin C against E. coli Ess,[5]; cyclization reaction mixture,0.9 µg/mL
same,"Zone of Inhibition, E. coli Ess",[5]; cyclization reaction mixture,12.5 mm
same,formation of antibiotic affecting E. coli Ess,[5]; [7],nor do they form any antibiotic affecting E. coli Ess
same,"Zone of Inhibition, E. coli Ess",[5]; [7],8.0 mm
CC[C@H](C)[C@@H](NC(=O)[C@H](CSSC[C@H](NC(=O)CCC[C@H](N)C(=O)O)C(=O)N[C@@H](C(=O)O)[C@@H](C)CC)NC(=O)CCC[C@H](N)C(=O)O)C(=O)O [(ACI)2],"Zone of Inhibition, M. luteus",[3],13.0 mm
same,"antibiotic activity equivalent to a solution of cephalosporin C, E. coli Ess + penicillinase plates",[4]; [7],0.9 µg/mL
same,"Zone of Inhibition, E. coli Ess + penicillinase",[4]; [7],12.5 mm
same,antibiotic activity equivalent to a solution of cephalosporin C against E. coli Ess,[5]; cyclization reaction mixture,4.85 µg/mL
same,"Zone of Inhibition, E. coli Ess",[5]; cyclization reaction mixture,20.0 mm
same,"Zone of Inhibition, E. coli Ess",[5]; [7],20.0 mm
"CC(C)[C@@H](NC(=O)[C@H](CSSC[C@H](NC(=O)CCC[C@H](N)C(=O)O)C(=O)N[C@@H](C(=O)O)C(C)C)NC(=O)CCC[C@H](N)C(=O)O)C(=O)O [(ACV)2, bis-δ-(L-α-amino-adipyl-L-cysteinyl-D-valine)]","Zone of Inhibition, M. luteus",[3],29.0 mm
same,"Cephalosporin C ""equivalents""",[4]; sample time 0 min,0
same,Zone of Inhibition,"[4]; sample time 0 min, 20 μl aliquot",0 mm
same,"Cephalosporin C ""equivalents""",[4]; sample time 15 min,.031 μm
same,Zone of Inhibition,[4]; sample time 15 min,15 mm
same,"Cephalosporin C ""equivalents""",[4]; sample time 30 min,.086 μm
same,Zone of Inhibition,[4]; sample time 30 min,19.5 mm
same,"Cephalosporin C ""equivalents""",[4]; sample time 45 min,.062 μm
same,Zone of Inhibition,[4]; sample time 45 min,18.5 mm
same,"Cephalosporin C ""equivalents""",[4]; sample time 60 min,.136 μm
same,Zone of Inhibition,[4]; sample time 60 min,21.5 mm
same,"Cephalosporin C ""equivalents""",[4]; sample time 75 min,.136 μm
same,Zone of Inhibition,[4]; sample time 75 min,21.5 mm
same,"antibiotic activity equivalent to a solution of cephalosporin C, E. coli Ess + penicillinase plates",[4]; [7],7.6 µg/mL
same,"Zone of Inhibition, E. coli Ess + penicillinase",[4]; [7],22 mm and 22.0 mm
same,antibiotic activity equivalent to a solution of cephalosporin C against E. coli Ess,[5]; cyclization reaction mixture,29.3 µg/mL
same,"Zone of Inhibition, E. coli Ess",[5]; cyclization reaction mixture,28.0 mm
same,"Zone of Inhibition, E. coli Ess",[5]; [7],28.5 mm
"CC(C)[C@@H](NC(=O)[C@H](CS)NC(=O)CCC[C@H](N)C(=O)O)C(=O)O [ACV, L-aminoadipyl-L-cysteinyl-D-valine]",ring expansion to a cephalosporin,[1]; [8],did not occur
same,conversion product,"[1]; mixture of the three enzymes, with 1 mM alpha-ketoglutarate",converted to desacetoxycephalosporin C
same,conversion product by bioassay and HPLC,[2]; [8],converted to a mixture of isopenicillin N and penicillin N
same,"conversion of ACV into a mixture of isopenicillin N, penicillin N, desacetoxycephalosporin C and desacetylcephalosporin C, by HPLC",[6],approximately 90%
CC(C)[C@@H](NC(=O)[C@H](CS)NC(=O)CCCCC(=O)O)C(=O)O [adipyl-containing peptide],cyclization of the peptide,[2]; procedures of Example 7,Cyclization was observed
same,"cyclization to the corresponding penicillin, carboxybutylpenicillin",[2]; procedures of Example 7,~20%
